Assay results published in patent US9512116B2, “Compounds that modulate intracellular calcium” (CALCIMEDICA, INC., priority 2012, dated 2016).
Like-named read-outs stand apart in the source and are kept apart here.

Columns and labels:
Orai1/STIM1 = target: T1, Orai1/STIM1 (Homo sapiens, UniProt Q96D31); experiment: Fluorescence-based assay of store-operated calcium entry in Orai1/STIM1 stable cells; assay type: cell-based; settings: HEK-293 cells stably expressing human STIM1 and Orai1, Peak-Basal signal, read-out: Orail/STIM1 (IC50, μmol)
T1 construct: expressed in transfected cells; host or cells: HEK-293
From the text: Fluorescence-based assays are used for screening the compounds described herein, such as compounds of Formulas (I), (II), (III), (IV) or (V) which modulate intracellular calcium.
A. Fluorescence-Based Assay of Store-Operated Calcium Entry in Orai1/STIM1 Stable Cells.
Cells stably expressing recombinant human STIM1 and Orai1 are generated by transfecting a human Orai1 expression plasmid (pcDNA3.1-Orai1-cmyc) into HEK-293 cells stably overexpressing human STIM1 (Roos et al. 2005 JCB 169(3): 435-445). Colonies of cells stably expressing both STIM1 and Orai1 proteins are selected and then subcloned by limiting dilution. Cells were cultured at 37° C./6% CO2 in complete medium with 10% FBS and appropriate selection markers.
The day prior to performing the assay Orai1/STIM1 stable cells are plated in 50 μL of complete medium at 90-95% confluence in a 384 well plate. Cells are grown at 37° C./6% CO2 overnight. On the day of the assay, 1.5 μM fluo-4-AM (Invitrogen) in complete medium is added to the cells, which are then incubated for 1 hour at RT. Cells are washed once in Ca^2+-free HBSS (Hank's buffered saline solution) and 35 μl of Ca^2+-free HBSS is added to each well. Test compounds are added to wells in a 10 μL Ca^2+-free HBSS solution, prepared at 4.5× the desired final concentration, and incubated for 30 minutes at RT. The initial baseline fluorescence signal is then measured with a FLIPR^384 (Molecular Devices) plate reader. Calcium entry is initiated by adding 5 μl of 10×CaCl2 (10 mM) in HBSS, and changes in cellular fluorescence are measured with the FLIPR^384 plate reader. In each well, the magnitude of the fluorescence signal as a result of calcium entry into the cell is determined by calculating the difference between the peak fluorescence signal measured after calcium addition and the initial baseline fluorescence signal (designated Peak-Basal). IC50 values are typically calculated as the concentration that inhibited 50% of the Peak-Basal signal.

RBL-2H3 cells = experiment: Fluorescence-based assay of store-operated calcium entry in RBL-2H3 cells; assay type: cell-based; settings: Rattus norvegicus, thapsigargin, Upslope, read-out: RBL-2H3 (IC50, μmol)
Description: B. Fluorescence-Based Assay of Store-Operated Calcium Entry in RBL-2H3 Cells.
RBL-2H3 cells are obtained from ATCC and maintained in complete medium with 10% FBS at 37° C./6% CO2.
The day prior to performing the assay, RBL-2H3 cells are plated in 50 μl of complete medium in a 384 well plate. Cells are grown at 37° C./6% CO2 overnight and grow to 50-60% confluence by the next day. On the assay day, 1.5 μM Fluo-4-AM dye (Invitrogen) in complete medium is added and incubated for 1 hour at RT. Cells are washed twice in Ca^2+-free HBSS buffer and 35 μL Ca^2+-free HBSS buffer is added to each well. 10 μL of a test compound prepared in a Ca^2+-free HBSS solution at 4.5× of the desired concentration is added to a well and incubated for 5 minutes at RT. 10 μL of thapsigargin prepared in a Ca^2+-free HBSS solution at 5.5× of the desired concentration (5.5 uM) is added to each well and incubated for an additional 25 minutes. The initial baseline fluorescence signal is measured with a FLIPR^384 (Molecular Devices) plate reader. 5 μL of 12× calcium in HBSS (12 mM) is added and changes in cellular fluorescence are measured with the FLIPR^384 plate reader. In each well, the change in the fluorescent signal as a function of time due to calcium entry into the cell is determined by calculating the difference between the fluorescent signal measured 7 seconds after calcium addition and the initial baseline fluorescence signal at time zero (t=0). This parameter is designated Upslope. The IC50 value is calculated as the concentration at which 50% of the Upslope is inhibited.

T1 sequence (Q96D31 whole entry): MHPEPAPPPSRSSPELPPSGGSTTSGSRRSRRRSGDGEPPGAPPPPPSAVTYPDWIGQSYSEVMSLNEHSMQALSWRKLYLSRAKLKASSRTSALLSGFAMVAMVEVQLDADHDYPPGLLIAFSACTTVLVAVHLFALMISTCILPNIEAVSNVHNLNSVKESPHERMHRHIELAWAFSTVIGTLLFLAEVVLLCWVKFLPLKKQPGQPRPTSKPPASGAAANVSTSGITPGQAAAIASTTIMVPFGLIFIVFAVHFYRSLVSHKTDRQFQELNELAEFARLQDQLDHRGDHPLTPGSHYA

SMILES	IC50 (Orai1/STIM1; Table IV)	IC50 (Orai1/STIM1; Table III)	further results
CCn1nc(-c2nccs2)cc1-c1ccc(NC(=O)c2c(F)cc(F)cc2F)s1 [Compound 16]	600 to 1200 nM	–	–
Cn1nc(-c2ccccc2F)cc1-c1ccc(NC(=O)c2c(F)cccc2F)s1 [Compound 22]	< 600 nM	–	IC50 (RBL-2H3 cells; Table IV): < 600 nM
CCn1nc(-c2nccs2)cc1-c1ccc(NC(=O)c2c(F)cccc2F)s1 [Compound 15]	600 to 1200 nM	–	–
Cc1oc(C(F)(F)F)nc1-c1ccc(NC(=O)c2c(F)cccc2F)nc1 [Compound 14, 2,6-difluoro-N-(5-(5-methyl-2-(trifluoromethyl)oxazol-4-yl)pyridin-2-yl)benzamide]	–	< 600 nM	–
Cn1nc(-c2ccccn2)cc1-c1ccc(NC(=O)c2c(F)cc(F)cc2F)s1 [Compound 27, 2,4,6-trifluoro-N-(5-(1-methyl-3-(pyridin-2-yl)-1H-pyrazol-5-yl)thiophen-2-yl)benzamide]	600 to 1200 nM	–	–
Cn1nc(-c2ccccc2F)cc1-c1ccc(NC(=O)c2c(F)cc(F)cc2F)s1 [Compound 20]	< 600 nM	–	IC50 (RBL-2H3 cells; Table IV): < 600 nM
Cn1nc(-c2nccs2)cc1-c1ccc(NC(=O)c2c(F)cc(F)cc2F)s1 [Compound 10, (2,4,6-trifluorophenyl)-N-[5-[1-methyl-3-(1,3-thiazol-2-yl)pyrazol-5-yl](2-thienyl)]carboxamide]	< 600 nM	–	–
Cc1ccccc1C(=O)Nc1ccc(-c2nc(C(F)(F)F)oc2C)cn1 [Compound 15]	–	< 600 nM	–
CCc1oc(C(F)(F)F)nc1-c1ccc(NC(=O)c2ccccc2F)nc1 [Compound 24, N-(5-(5-ethyl-2-(trifluoromethyl)oxazol-4-yl)pyridin-2-yl)-2-fluorobenzamide]	–	< 600 nM	–
Cn1nc(-c2nccs2)cc1-c1ccc(NC(=O)c2ccc(F)cc2F)s1 [Compound 7, (2,4-difluorophenyl)-N-[5-[1-methyl-3-(1,3-thiazol-2-yl)pyrazol-5-yl](2-thienyl)]carboxamide]	< 600 nM	–	–
CCc1oc(C(F)(F)F)nc1-c1ccc(NC(=O)c2c(F)cccc2F)nc1 [Compound 25, N-(5-(5-ethyl-2-(trifluoromethyl)oxazol-4-yl)pyridin-2-yl)-2,6-difluorobenzamide]	–	< 600 nM	–
Cn1nc(-c2ccccn2)cc1-c1ccc(NC(=O)c2c(F)cccc2F)s1 [Compound 28, 2,6-difluoro-N-(5-(1-methyl-3-(pyridin-2-yl)-1H-pyrazol-5-yl)thiophen-2-yl)benzamide]	< 600 nM	–	–

The next lines start with results.

IC50 (Orai1/STIM1; Table IV)	IC50 (Orai1/STIM1; Table III)	SMILES	further results
–	< 600 nM	Cc1oc(C(F)(F)F)nc1-c1ccc(NC(=O)c2cccc(F)c2C)nc1 [Compound 19, 3-fluoro-2-methyl-N-(5-(5-methyl-2-(trifluoromethyl)oxazol-4-yl)pyridin-2-yl)benzamide]	–
–	< 600 nM	Cc1cccc(F)c1C(=O)Nc1ccc(-c2nc(C(F)(F)F)oc2C)cn1 [Compound 21]	IC50 (RBL-2H3 cells; Table III): < 600 nM
–	< 600 nM	Cc1oc(C(F)(F)F)nc1-c1ccc(NC(=O)c2ccccc2F)nc1 [Compound 16]	–
< 600 nM	–	Cn1nc(-c2nccs2)cc1-c1ccc(NC(=O)c2c(F)cccc2F)s1 [Compound 6, (2,6-difluorophenyl)-N-[5-[1-methyl-3-(1,3-thiazol-2-yl)pyrazol-5-yl](2-thienyl)]carboxamide]	–
–	< 600 nM	Cc1oc(C(F)(F)F)nc1-c1ccc(NC(=O)c2c(F)cncc2F)nc1 [Compound 17, 3,5-difluoro-N-(5-(5-methyl-2-(trifluoromethyl)oxazol-4-yl)pyridin-2-yl)isonicotinamide]	–
600 to 1200 nM	–	Cn1nc(-c2ccccc2F)cc1-c1ccc(NC(=O)c2c(F)ccc(F)c2F)s1 [Compound 21]	IC50 (RBL-2H3 cells; Table IV): 600 to 1200 nM
